According to patent publication US7074765B2, “Synthetic peptide analogs of Arg-Pro-Pro-Gly-Phe as selective inhibitors of thrombin and thrombin activation of protease activated receptors 1 and 4” (The Regents of the University of Michigan, priority 2003, dated 2006):
Where “and” joins values, the source holds several entries; their conditions need not be identical. Equal values may be shown once. Square brackets hold non-standard residues; d marks the D form. Ends that are not written are not given here. Oic = O=C(O)[C@@H]1C[C@@H]2CCCC[C@@H]2N1; Igl = N[C@H](C(=O)O)C1Cc2ccccc2C1; Hyp = O=C(O)[C@@H]1C[C@@H](O)CN1; 2Thi = N[C@@H](Cc1cccs1)C(=O)O

How the values were obtained:
[1] = tested on: platelets in platelet-rich plasma; test: γ-thrombin-induced platelet aggregation in platelet-rich plasma; assay type: cell-based, human; settings: minimal concentration that blocked γ-thrombin-induced platelet aggregation in platelet-rich plasma
Description: Fresh whole blood was collected and mixed with 0.013 M sodium citrate and platelet-rich plasma was prepared according to the method of Meloni et al., J. Biol. Chem. 266, 6786 (1991). Platelet-rich plasma with a normalized platelet count between 2–2.5×10^8 platelets/ml was added to a cuvette of an aggregometer (Chronlog Corp., Havertown, Pa.), standardized using the protocol of Meloni et al., supra. Peptides to be examined were added to the cuvette and the mixture stabilized for a few moments. Once the baseline was stabilized, γ-thrombin (10–70 nM) (Haematologic Technologies, Essex Junction, Vt.) was added to determine the minimal concentration of the agonist necessary to achieve full platelet aggregation. All investigations with peptides were performed using threshold concentrations of γ-thrombin. Aggregation was allowed to proceed for 5 minutes before stopping. When ADP-induced platelet aggregation studies were performed, 1–5 μM ADP (Sigma) was added to the cuvette containing platelet-rich plasma.

[2] = tested on: normal human citrated plasma; test: thrombin clotting time (TCT); assay type: biochemical; settings: peptide at the concentration that inhibits platelet aggregation
Description: (§1) The influence of the various peptide formulations used in the present invention on established coagulation-based assays was determined. The activated partial thromboplastin time (APTT) is performed by mixing 0.05 ml normal human citrated plasma with 0.05 ml activated partial thromboplastin reagent purchased from Organon Teknika, Research Triangle Park, N.C. in the absence or presence of a peptide inhibitor. After incubation for 5 min at 37° C., the mixture is recalcified with 0.05 ml of 30 mM calcium chloride and the time to clot formation is measured in an Amelung KC4A instrument (Sigma Chemical Corp, St. Louis, Mo.) (Hasan et al. Thrombosis and Haemostasis. 82, 1182–1187 (1999)). The prothrombin time (PT) is performed by mixing 0.05 ml normal human citrated plasma with 0.05 ml Simplastin (Organon Teknika, Research Triangle Park, N.C.) followed by incubation for 3 min at 37° C. in the absence or presence of a peptide inhibitor. At the addition of 0.05 ml of 30 mM calcium chloride, the time to clot formation is measured in an KC4A instrument (Sigma Chemical Corp, St. Louis, Mo.) (Hasan et al. Thrombosis and Haemostasis. 82, 1182–1187 (1999)). The thrombin clotting time (TCT) is performed by adding 0.1 ml normal human citrated plasma in the absence or presence of a peptide inhibitor and 0.05 ml of a α-thrombin solution such that the final concentration of the thrombin in the entire mixture was 1 nM. Upon addition of the thrombin, the time to clot formation is measured in an KC4A instrument (Sigma Chemical Corp, St. Louis, Mo.). In FIG. 5, peptide TH146 produces a significant prolongation (p<0.05) of the activated partial thromboplastin time at 15 μM, of the prothrombin time at 60 μM, and the thrombin clotting time at 15 μM. In FIG. 6, peptide MAP4-TH146 produced a significant prolongation (p<0.05) of the activated partial thromboplastin time at 0.195 μM, of the prothrombin time at 3.125 μM, and the thrombin clotting time at 0.39 μM.

[3] = tested on: normal human citrated plasma; test: activated partial thromboplastin time (APTT); assay type: biochemical; settings: peptide at the concentration that inhibits platelet aggregation
Description: as §1

[4] = tested on: normal human citrated plasma; test: prothrombin time (PT); assay type: biochemical; settings: peptide at the concentration that inhibits platelet aggregation
Description: as §1

[5] = tested on: normal human lung fibroblasts (NHLF); test: α-thrombin-induced calcium mobilization in fibroblasts; assay type: cell-based; settings: 0.1 mM peptide; α-thrombin-induced calcium mobilization in fibroblasts
Description: The second assay developed to assess peptides from the combinatorial libraries uses inhibition of α-thrombin-induced calcium mobilization in fibroblasts. Normal human lung fibroblasts (NHLF) were purchased from Clonetics, San Diego, Calif., an affiliate of Bio-Wittaker, Walkersville, Md. The cytoplasmic free Ca^2+ concentration ([Ca^2+]i) was measured using the fluorescent Ca^2+ indicator fura-2 (Molecular Probes, Inc., Eugene, Oreg.). Suspension of fibroblasts in Hepes-Tyrode's buffer were loaded with fura-2 by incubation at 37° C. with 2 μM fura-2/acetoxymethyl ester for 45 minutes according to the method of Rasmussen et al., J. Biol. Chem. 268, 14322 (1993). The labeled fibroblasts were separated from excess probe by washing by centrifugation at 1000 rpm (180×g). Aliquots of the labeled fibroblasts were transferred into a quartz cuvette with a magnetic stirrer, which was then placed in a thermostatically controlled chamber at 37° C. in a fluorescence spectrophotometer (Perkin-Elmer LS50B spectrofluorometer, Chicago, Ill.). Reagents, test peptide, and α-thrombin (0.25–2 nM), were sequentially added directly to the cuvette. The excitation wavelengths varied between 340 and 380 nm. Fluorescence was measured by recording emitted light at 510 nm as reported by Fisher et al., Mol Pharm. 35, 195 (1989). The minimum emission was determined on a solubilized fibroblast sample in the presence of 10 mM EDTA; maximum emission was determined on the same sample with 10 mM Ca^2+ added. The intrafibroblast free Ca^2+ concentration was calculated by the method of Grykiewicz et al., J. Biol. Chem. 260, 3440 (1985). […] The KD for fura-2 was assumed to be 224 nM. Rmax and Rmin are the maximum and minimum fluorescence ratios measured at the end of the experiment, respectively; Sf2 and Sb2 are the fluorescence values at 380 nm in the absence and presence of saturating [Ca^2+], respectively. The reaction was monitored for 3–5 minutes.

[6] = target: T1, recombinant protease activated receptor 1 extracellular domain (rPAR1EC) (Homo sapiens, UniProt P25116); test: Inhibition of RPPGF-biotin binding to rPAR1EC; settings: 5 mM peptide, 50 μM RPPGF-biotin (FIG. 7); listed in decreasing order
T1 construct: A portion of the extracellular domain of human PAR1 (Ala^26-Ser^99) (rPAR1EC) was expressed in Escherichia coli; His10-DDDDK (pET19b) (N); made in house; host or cells: E. coli BL21(DE3), pET19b
T1 sequence (P25116 26-99): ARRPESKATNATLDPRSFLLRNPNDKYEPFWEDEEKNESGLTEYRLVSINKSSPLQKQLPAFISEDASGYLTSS

[7] = target: recombinant protease activated receptor 1 extracellular domain (rPAR1EC), human PAR1 Ala26-Ser99, His10-DDDDK fusion (human) (UniProt P25116); test: cell-based or functional assay
α-thrombin = α-thrombin (Homo sapiens, UniProt P00734); test: cell-based or functional assay
thrombin = thrombin (Homo sapiens, UniProt P00734); settings: read-out: Ki (direct inhibitor of thrombin); cited from earlier work
PC-3 cells = test: Thrombin-induced motility of prostate cancer cells (Boyden chamber); assay type: cell-based; settings: 10 μM; 2 nM α-thrombin
Description: Motility assays are performed with a modified Boyden chamber (tissue culture-treated, 6.5 mm diameter, 10 μm thickness, 8 μm pores). In the motility assays, 2.5×10^4 cells are plated in the top chamber of non-coated polyethylene teraphthalate (PET) membranes (24-well insert, pore size […]; Becton Dickinson). […] RPMI 10% fetal bovine serum is used as a chemoattractant in the lower chamber. […] The cells that transverse the membranes are stained with Dip-Quick (Jorgensen Laboratories, Loveland, Colo.). Cells in five random fields of view at 200× are counted and expressed as the average number of cells/field of view. […]

[8] = tested on: MAP4-rOicPGF (β-Ala-Lys-2Lys-4(D-Arg-Oic-Pro-Gly-Phe))
[9] = tested on: MAP4-RPPGF (β-Ala-Lys-2Lys-4(Arg-Pro-Pro-Gly-Phe))
[10] = tested on: T2, RPPGF (Arg-Pro-Pro-Gly-Phe, SEQ ID NO:4)
T2 sequence: RPPGF

[11] = target: human α-thrombin (human), P00734; test: cell-based or functional assay
[12] = target: T3, recombinant protease activated receptor 1 extracellular domain (rPAR1EC), human PAR1 Ala26-Ser99, His10-DDDDK fusion (human), P25116; test: cell-based or functional assay
T3 chain: T1 sequence (P25116 26-99)

Molecule | Concentration of Peptide [mM] That Gives 100% Inhibition [1] [mM] | TCT (Fold Prolongation over RPPGF) [2] [Fold] | APTT (Fold Prolongation over RPPGF) [3] [Fold] | PT (Fold Prolongation over RPPGF) [4] [Fold] | Ca^2^+ % Inhibition At 0.1 mM Peptide [5] [%] | other results
D-Arg-Idg-Tic-Gly-Phe [rIdgTicGF] | 0.1 | 1.2 | 1.0 | 1.1 | 58.44 | –
D-Arg-Oic-Hyp-Gly-Idg [TH37] | – | – | – | – | – | blocking of RPPGF-biotin binding to rPAR1EC by peptides [6]: blocked
D-Arg-Oic-Hyp-Gly-Idg [rOicHypGIdg] | 0.157 | 1.7 | 1.1 | 1.1 | 36.7 | –
D-Arg-Oic-Oic-Gly-Idg [rOicOicGIdg] | 0.257 | 1.1 | 1.1 | 1.1 | 28.1 | –
D-Arg-Oic-Pro-Gly-Idg ([dR][Oic]PG[Igl]-NH2; N-terminus assumed; SMILES N=C(N)NCCC[C@@H](N)C(=O)N1[C@H](C(=O)N2CCC[C@H]2C(=O)NCC(=O)N[C@H](C(N)=O)C2Cc3ccccc3C2)C[C@@H]2CCCC[C@@H]21) [rOicPGIdg] | 0.129 | 1.5 | 1.1 | 1.1 | 36.2 | blocking of RPPGF-biotin binding to rPAR1EC by peptides [6]: blocked
MAP4-RPPGF (β-Ala-Lys-2Lys-4(Arg-Pro-Pro-Gly-Phe)) (peptide) | – | – | – | – | – | inhibition of thrombocytin cleavage of PAR1 (rPAR1EC, SDS-PAGE) [7]: 0.2 mM and 0.5 mM
MAP4-rOicPGF (β-Ala-Lys-2Lys-4(D-Arg-Oic-Pro-Gly-Phe)) (peptide) | – | – | – | – | – | concentration giving significant prolongation (p<0.05) of the APTT of normal human plasma (α-thrombin): 0.195 µM; concentration giving significant prolongation (p<0.05) of the PT of normal human plasma (α-thrombin): 3.12 µM; concentration giving significant prolongation (p<0.05) of the TCT of normal human plasma (α-thrombin): 0.39 µM; inhibition of thrombocytin-induced cleavage of recombinant extracellular domain of human PAR1 (SDS-PAGE) [7]: 0.2 mM
RPPGFSPFR [Bradykinin, Arg-Pro-Pro-Gly-Phe-Ser-Pro-Phe-Arg] | – | – | – | – | – | Ki (thrombin): 170 to 326 µM
[dR][Oic][Hyp]G[2Thi] [rOicHypGThi] | 0.157 | 1.3 | 1.1 | 1.1 | 38 | –
[dR][Oic][Oic]G[2Thi] [rOicOicGThi] | 0.271 | 1.1 | 1.2 | 1.1 | 18.2 | –
hirudin [reference compound] | – | – | – | – | – | effect on thrombin-induced PC-3 cell motility (PC-3 cells): block
thrombocytin | – | – | – | – | – | thrombocytin (16.7 nM) hydrolysis of 1 mM H-D-Phe-Pip-Arg-paranitroanilide (S2238), 0-1.0 mM MAP4-TH146 [8]: MAP4-TH146 inhibits these enzymes' ability to hydrolyze their substrates; thrombocytin (16.7 nM) hydrolysis of 1 mM H-D-Phe-Pip-Arg-paranitroanilide in the presence of 1 mM MAP4-RPPGF [9]: RPPGF (SEQ ID NO:4) or MAP4-RPPGF inhibits the ability of these enzymes to hydrolyze their substrates; thrombocytin (16.7 nM) hydrolysis of 1 mM H-D-Phe-Pip-Arg-paranitroanilide in the presence of 2 mM RPPGF [10]: RPPGF (SEQ ID NO:4) or MAP4-RPPGF inhibits the ability of these enzymes to hydrolyze their substrates
[dR][Oic]PGF [rOicPGF (D-Arg-Oic-Pro-Gly-Phe)] | – | – | – | – | – | concentration giving significant prolongation (p<0.05) of the activated partial thromboplastin time [11]: 15 µM; concentration giving significant prolongation (p<0.05) of the prothrombin time [11]: 60 µM; concentration giving significant prolongation (p<0.05) of the thrombin clotting time [11]: 15 µM; concentration giving significant prolongation of the APTT of normal human plasma [11]: 3.7 µM; concentration giving significant prolongation of the PT of normal human plasma [11]: 30 µM; concentration giving significant prolongation of the TCT of normal human plasma [11]: 3.7 µM
RPPGF (modifications not checked) [RPPGF (Arg-Pro-Pro-Gly-Phe, SEQ ID NO:4)] | – | – | – | – | – | inhibition of thrombocytin cleavage of recombinant human PAR1 extracellular domain (SDS-PAGE) [12]: 0.5 mM and 1 mM
